Test results taken from patent US7897765B2, “Therapeutic compounds and uses thereof” (Elixir Pharmaceuticals, Inc., priority 2003, dated 2011).

target: GHS-R (Homo sapiens, UniProt Q92847); experiment: cell based assay of GHS-R antagonist/agonist activity; set-up: key: A refers to a compound having antagonist activity with Ki<100 nM in a cell based assay; B refers to a compound having agonist activity with EC50<100 nM in a cell based assay; C refers to a compound having antagonist activity of Ki>100 nM and <1500 nM in a cell based assay; D refers to a compound having antagonist activity with Ki, <100 nM and agonist activity with EC50<100 nM in a cell-based assay; E refers to other exemplary compounds; conditions: GHS-R antagonist Ki and/or agonist EC50 class
Sequence (Q92847 whole entry, species assumed): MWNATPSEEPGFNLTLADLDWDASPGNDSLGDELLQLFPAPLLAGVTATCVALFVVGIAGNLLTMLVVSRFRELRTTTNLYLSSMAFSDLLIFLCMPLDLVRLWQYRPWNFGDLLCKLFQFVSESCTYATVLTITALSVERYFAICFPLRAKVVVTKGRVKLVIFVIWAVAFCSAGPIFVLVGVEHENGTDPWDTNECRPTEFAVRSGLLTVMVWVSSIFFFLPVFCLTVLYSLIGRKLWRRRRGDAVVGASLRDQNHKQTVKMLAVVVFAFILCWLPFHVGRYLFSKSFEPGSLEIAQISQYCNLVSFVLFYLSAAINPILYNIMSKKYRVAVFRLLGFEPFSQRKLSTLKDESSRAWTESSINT
Experimental: Cell-Based Activity Assays. For example, the ability of the compound to modulate accumulation of a second messenger signaling component downstream of GHS-R can be evaluated. For example, inositol phosphates (IP), as a result of Gq signaling in a mammalian cell, e.g., a Cos-7 cells. Other tissue culture cells, Xenopus oocytes, and primary cells can also be used.
Phosphatidylinositol turnover assay. One day after transfection COS-7 cells are incubated for 24 hours with 5 μCi of [^3H]-myo-inositol in 1 ml medium supplemented with 10% fetal calf serum, 2 mM glutamine and 0.01 mg/ml gentamicin per well. Cells are then washed twice in buffer, 20 mM HEPES, pH 7.4, supplemented with 140 mM NaCl, 5 mM KCl, 1 mM MgSO4, 1 mM CaCl2, mM glucose, 0.05% (w/v) bovine serum; and incubated in 0.5 ml buffer supplemented with 10 mM LiCl at 37° C. for 30 min. For some assays, it is also useful to incubate the cells with adenosine deaminase ADA (200 U/mg, Boehringer Mannheim, Germany) for 30 min in a concentration of 1 U/ml.
After incubation with the compound of interest for 45 min at 37° C., cells are extracted with 10% ice-cold perchloric acid and placed on ice for 30 min. The resulting supernatants are neutralized with KOH in HEPES buffer, and [^3H]-inositol phosphate is purified on Bio-Rad AG 1-X8 anion exchange resin as described. Assays can be run in duplicate, triplicate, etc.
Other second messenger assays. Another second messenger that can be evaluated is Ca^2+. Ca^2+ mobilization can be evaluated using a calcium sensitive detector, such as aequorin protein or a dye, e.g., FURA-2. In an exemplary assay, calcium mobilization is evaluated in a recombinant cell that expresses GHS-R and aequorin.
Gene expression assay. HEK293 cells (30 000 cells/well) seeded in 96-well plates are transiently transfected with a mixture of pFA2-CREB and pFR-Luc reporter plasmid (PathDetect™ CREB trans-Reporting System, Stratagene) and nucleic acid encoding GHS. One day after transfection, cells are treated with the compound of interest in an assay volume of 100 μl medium for 5 hrs. After treatment, cells are cultured in low serum (2.5%). After the incubation period, the assay is ended by washing the cells twice with PBS and adding 100 μl luciferase assay reagent (LucLite™, Packard Bioscience). Luminescence is measured (e.g., as relative light units (RLU)) using in a luminometer such as the TopCounter™ (Packard Bioscience) for 5 sec.
IC50 and EC50 values can be determined by nonlinear regression, e.g., using the Prism 3.0 software (GraphPad Software, San Diego).

| SMILES | Activity |
| --- | --- |
| CS(=O)(=O)N1CC2(CCN(C(=O)[C@@H](COCc3ccccc3)NC(=O)CO)CC2)c2ccccc21 [Compound 54] | E |
| CS(=O)(=O)N1CC2(CCN(C(=O)[C@@H](COCc3ccccc3)NC(=O)Cn3ccnc3)CC2)c2ccccc21 [Compound 55] | E |
| CC(C)(C)OC(=O)N[C@H](COCc1ccccc1)C(=O)N1CCC2(CC1)CNc1ccccc12 [Compound 56] | E |
| COCC(=O)N1CC2(CCN(C(=O)[C@@H](COCc3ccccc3)NC(=O)OC(C)(C)C)CC2)c2ccccc21 [Compound 57] | E |
| COc1cccc(C(=O)N2CC3(CCN(C(=O)[C@@H](COCc4ccccc4)NC(=O)OC(C)(C)C)CC3)c3ccccc32)c1 [Compound 58] | E |
| CC(=O)OCC(=O)N1CC2(CCN(C(=O)[C@@H](COCc3ccccc3)NC(=O)OC(C)(C)C)CC2)c2ccccc21 [Compound 59] | E |
| COC(=O)CC(=O)N1CC2(CCN(C(=O)[C@@H](COCc3ccccc3)NC(=O)OC(C)(C)C)CC2)c2ccccc21 [Compound 60] | E |
| CC(C)(C)OC(=O)N[C@H](COCc1ccccc1)C(=O)N1CCC2(CC1)CN(C(=O)CO)c1ccccc12 [Compound 61] | E |
| CC(C)(C)OC(=O)N[C@H](COCc1ccccc1)C(=O)N1CCC2(CC1)CN(C(=O)CC(=O)O)c1ccccc12 [Compound 62] | E |
| CN(C)CC(=O)N1CC2(CCN(C(=O)[C@@H](COCc3ccccc3)NC(=O)OC(C)(C)C)CC2)c2ccccc21 [Compound 63] | E |
| CC(C)(C)OC(=O)N[C@H](COCc1ccccc1)C(=O)N1CCC2(CC1)CN(S(=O)(=O)CC(F)(F)F)c1ccccc12 [Compound 64] | E |
| COc1cccc(NC(=O)N2CC3(CCN(C(=O)[C@@H](COCc4ccccc4)NC(=O)OC(C)(C)C)CC3)c3ccccc32)c1 [Compound 65] | E |
| CC(C)(C)OC(=O)N[C@H](COCc1ccccc1)C(=O)N1CCC2(CC1)CN(C(=O)Cn1ccnc1)c1ccccc12 [Compound 66] | E |
| CC(C)(C)OC(=O)N[C@H](COCc1ccccc1)C(=O)N1CCC2(CC1)CN(S(=O)(=O)Cc1ccccc1)c1ccccc12 [Compound 67] | E |
| CN(C)CC(=O)N[C@H](COCc1ccccc1)C(=O)N1CCC2(CC1)CNc1ccccc12 [Compound 68] | E |
| COc1cccc(NC(=O)N2CC3(CCN(C(=O)[C@@H](COCc4ccccc4)NC(=O)CN(C)C)CC3)c3ccccc32)c1 [Compound 69] | E |
| CNCC(=O)N[C@H](COCc1ccccc1)C(=O)N1CCC2(CC1)CN(S(C)(=O)=O)c1ccccc12 [Compound 70] | E |
| CC(=O)OCC(=O)N1CC2(CCN(C(=O)[C@@H](COCc3ccccc3)NC(=O)CN(C)C)CC2)c2ccccc21 [Compound 71] | E |
| COC(=O)CC(=O)N1CC2(CCN(C(=O)[C@@H](COCc3ccccc3)NC(=O)CN(C)C)CC2)c2ccccc21 [Compound 72] | E |
| COCC(=O)N1CC2(CCN(C(=O)[C@@H](COCc3ccccc3)NC(=O)CN(C)C)CC2)c2ccccc21 [Compound 73] | E |
| COc1cccc(C(=O)N2CC3(CCN(C(=O)[C@@H](COCc4ccccc4)NC(=O)CN(C)C)CC3)c3ccccc32)c1 [Compound 74] | E |
| CN(C)CC(=O)N[C@H](COCc1ccccc1)C(=O)N1CCC2(CC1)CN(C(=O)CO)c1ccccc12 [Compound 75] | E |
| C[C@H](N)C(=O)N[C@H](COCc1ccccc1)C(=O)N1CCC2(CC1)CN(S(C)(=O)=O)c1ccccc12 [Compound 78] | E |
| C[C@@H](N)C(=O)N[C@H](COCc1ccccc1)C(=O)N1CCC2(CC1)CN(S(C)(=O)=O)c1ccccc12 [Compound 79] | E |
| CS(=O)(=O)N1CC2(CCN(C(=O)[C@@H](COCc3ccccc3)NC(=O)C3=NCCN3)CC2)c2ccccc21 [Compound 80] | E |
| C[C@@H](C(=O)N[C@H](COCc1ccccc1)C(=O)N1CCC2(CC1)CN(S(C)(=O)=O)c1ccccc12)N(C)C [Compound 81] | E |

| SMILES | Activity |
| --- | --- |
| CN(C)CCS(=O)(=O)N[C@H](COCc1ccccc1)C(=O)N1CCC2(CC1)CN(S(C)(=O)=O)c1ccccc12 [Compound 83] | E |
| CN1CCC(N[C@H](COCc2ccccc2)C(=O)N2CCC3(CC2)CN(S(C)(=O)=O)c2ccccc23)CC1 [Compound 84] | E |
| CC(C)(C)NC(=S)N[C@H](COCc1ccccc1)C(=O)N1CCC2(CC1)CN(S(C)(=O)=O)c1ccccc12 [Compound 85] | E |
| CS(=O)(=O)N1CC2(CCN(C(=O)[C@@H](COCc3ccccc3)NC(=S)Nc3cccnc3)CC2)c2ccccc21 [Compound 86] | E |
| CS(=O)(=O)N1CC2(CCN(C(=O)[C@@H](COCc3ccccc3)NC(=S)NCc3ccco3)CC2)c2ccccc21 [Compound 87] | E |
| CC(=O)N(C1CCN(C)CC1)[C@H](COCc1ccccc1)C(=O)N1CCC2(CC1)CN(S(C)(=O)=O)c1ccccc12 [Compound 88] | E |
| CN(C)CCC(=O)N[C@H](COCc1ccccc1)C(=O)N1CCC2(CC1)CN(S(C)(=O)=O)c1ccccc12 [Compound 89] | E |
| CCN(CC)CC(=O)N[C@H](COCc1ccccc1)C(=O)N1CCC2(CC1)CN(S(C)(=O)=O)c1ccccc12 [Compound 90] | E |
| CN1CCN(CC(=O)N[C@H](COCc2ccccc2)C(=O)N2CCC3(CC2)CN(S(C)(=O)=O)c2ccccc23)CC1 [Compound 91] | E |
| CS(=O)(=O)N1CC2(CCN(C(=O)[C@@H](COCc3ccccc3)NC(=O)NCCN3CCOCC3)CC2)c2ccccc21 [Compound 92] | E |
| CN1CCN(C(=O)N[C@H](COCc2ccccc2)C(=O)N2CCC3(CC2)CN(S(C)(=O)=O)c2ccccc23)CC1 [Compound 93] | E |
| CN(C)CCNC(=O)N[C@H](COCc1ccccc1)C(=O)N1CCC2(CC1)CN(S(C)(=O)=O)c1ccccc12 [Compound 94] | E |
| CS(=O)(=O)N1CC2(CCN(C(=O)[C@@H](COCc3ccccc3)NC(=O)NCCCO)CC2)c2ccccc21 [Compound 95] | E |
| CCN1CCC[C@@H]1CNC(=O)N[C@H](COCc1ccccc1)C(=O)N1CCC2(CC1)CN(S(C)(=O)=O)c1ccccc12 [Compound 96] | E |
| CS(=O)(=O)N1CC2(CCN(C(=O)[C@@H](COCc3ccccc3)NC(=O)NCCN3CCCCC3)CC2)c2ccccc21 [Compound 97] | E |
| CC(C)(C)OC(=O)N1CC=C(C(=O)N[C@H](COCc2ccccc2)C(=O)N2CCC3(CC2)CN(S(C)(=O)=O)c2ccccc23)CC1 [Compound 98] | E |
| CN1CC=C(C(=O)N[C@H](COCc2ccccc2)C(=O)N2CCC3(CC2)CN(S(C)(=O)=O)c2ccccc23)CC1 [Compound 99] | E |
| CCN1CC=C(C(=O)N[C@H](COCc2ccccc2)C(=O)N2CCC3(CC2)CN(S(C)(=O)=O)c2ccccc23)CC1 [Compound 100] | E |
| CCN(CCS(=O)(=O)N[C@H](COCc1ccccc1)C(=O)N1CCC2(CC1)CN(S(C)(=O)=O)c1ccccc12)C(C)C [Compound 101] | E |
| CC(C)CCN1CC=C(C(=O)N[C@H](COCc2ccccc2)C(=O)N2CCC3(CC2)CN(S(C)(=O)=O)c2ccccc23)CC1 [Compound 102] | E |
| CC(C)(C)OC(=O)N1CCC(CNC(COCc2ccccc2)C(=O)N2CCC3(CC2)CN(S(C)(=O)=O)c2ccccc23)CC1 (stereo not drawn) [Compound 103] | E |
| CS(=O)(=O)N1CC2(CCN(C(=O)C(COCc3ccccc3)NCC3CCNCC3)CC2)c2ccccc21 (stereo not drawn) [Compound 104] | E |
| CS(=O)(=O)N1CC2(CCN(C(=O)[C@@H](COCc3ccccc3)NS(=O)(=O)CCN3CCC3)CC2)c2ccccc21 [Compound 105] | E |
| CC(C)(C)OC(=O)N1CCC=C(C(=O)N[C@H](COCc2ccccc2)C(=O)N2CCC3(CC2)CN(S(C)(=O)=O)c2ccccc23)C1 [Compound 106] | E |
| CS(=O)(=O)N1CC2(CCN(C(=O)[C@@H](COCc3ccccc3)NC(=O)C3=CCCNC3)CC2)c2ccccc21 [Compound 107] | E |
